Source: patent US6458813B1, “Substituted pyridine compounds and methods of use” (Amgen Inc., priority 1997, dated 2002)

What was measured:
[1] = tested on: production of tumor necrosis factor (TNF) by monocytes activated with bacterial lipopolysaccharide (LPS); experiment: Lipopolysaccharide-activated monocyte TNF production assay; format: cell-based; details: Homo sapiens, adherent monocytes from PBMCs, 60 min with compound, then LPS 4 hrs, TNF in supernatants by ELISA, read-out: IC50 (concentration of test compounds causing a 50% reduction in TNF production)
Experimental: Lipopolysaccharide-activated monocyte TNF production assay
Test compounds were evaluated in vitro for the ability to inhibit the production of tumor necrosis factor (TNF) by monocytes activated with bacterial lipopolysaccharide (LPS). Fresh residual source leukocytes (a byproduct of plateletpheresis) were obtained from a local blood bank, and peripheral blood mononuclear cells (PBMCs) were isolated by density gradient centrifugation on Ficol-Paque Plus (Pharmacia). PBMCs were suspended at 2×10^6/ml in DMEM supplemented to contain 2% FCS, 10 mM, 0.3 mg/ml […], 100 U/ml penicillin G and […] streptomycin sulfate (complete media). Cells were plated into Falcon flat bottom, 96 well culture plates (200 μl/well) and cultured overnight at 37° C. and 6% CO2. Non-adherent cells were removed by washing with 200 μl/well of fresh medium. Wells containing adherent cells (˜70% monocytes) were replenished with 100 μl of fresh medium.
Preparation of test compound stock solutions
Test compounds were dissolved in DMSO. Compound stock solutions were prepared to an initial concentration of […]. Stocks were diluted initially to 20-200 μM in complete media. Nine two-fold serial dilutions of each compound were then prepared in complete medium.
Treatment of cells with test compounds and activation of TNF production with lipopolysaccharide
One hundred microliters of each test compound dilution were added to microtiter wells containing adherent monocytes and 100 μl complete medium. Monocytes were cultured with test compounds for 60 min at which time 25 μl of complete medium containing 30 ng/ml lipopolysaccharide from E. coli K532 were added to each well. Cells were cultured an additional 4 hrs. Culture supernatants were then removed and TNF presence in the supernatants was quantified using an ELISA.
Flat bottom, 96 well Corning High Binding ELISA plates were coated overnight (4° C.) with 150 μL/well of 3 μg/ml murine anti-human TNF-α MAb (R&D Systems #MAB210). Wells were then blocked for 1 hr at room temperature with 200 μL/well of CaCl2-free ELISA buffer supplemented to contain 20 mg/ml BSA (standard ELISA buffer: […], 150 mM NaCl, 2 mM CaCl2, 0.15 mM thimerosal, pH 7.4). Plates were washed and replenished with 100 μl of test supernatants (diluted 1:3) or standards. Standards consisted of eleven 1.5-fold serial dilutions from a stock of 1 ng/ml recombinant human TNF (R&D Systems). Plates were incubated at room temperature for 1 hr on orbital shaker (300 rpm), washed and replenished with 100 μl/well of 0.5 μg/ml goat anti-human TNF-α (R&D systems #AB-210-NA) biotinylated at a 4:1 ratio. Plates were incubated for 40 min, washed and replenished with 100 μl/well of alkaline phosphatase-conjugated streptavidin (Jackson ImmunoResearch #016-050-084) at 0.02 μg/ml. Plates were incubated 30 min, washed and replenished with 200 μl/well of 1 mg/ml of p-nitrophenyl phosphate. After 30 min, plates were read at 405 nm on a Vmax plate reader.
Standard curve data were fit to a second order polynomial and unknown TNF-α concentrations determined from their OD by solving this equation for concentration. TNF concentrations were then plotted vs. test compound concentration using a second order polynomial. This equation was then used to calculate the concentration of test compounds causing a 50% reduction in TNF production.

[2] = tested on: Cyclooxygenase enzyme (COX-1 and COX-2); experiment: Cyclooxygenase Enzyme Activity Assay (isoform not stated for the result); format: cell-based, human; details: COX-1 (THP-1) / COX-2 (HOSC) cell assays, PGE2 ELISA
Experimental: Cyclooxygenase Enzyme Activity Assay
The human monocytic leukemia cell line, THP-1, differentiated by exposure to phorbol esters expresses only COX-1; the human osteosarcoma cell line 143B expresses predominantly COX-2. THP-1 cells are routinely cultured in RPMI complete media supplemented with 10% FBS and human osteosarcoma cells (HOSC) are cultured in minimal essential media supplemented with 10% fetal bovine serum (MEM-10%FBS); all cell incubations are at 37° C. in a humidified environment containing 5% CO2.
In preparation for the COX-1 assay, THP-1 cells are grown to confluency, split 1:3 into RPMI containing 2% FBS and […] phorbol 12-myristate 13-acetate (TPA), and incubated for 48 hours on a shaker to prevent attachment. […] Arachidonic acid is added to a final concentration of […], the cells incubated for 20 minutes at 37° C., and enzyme activity determined as described below. […]
After incubation with arachidonic acid, the reactions are stopped by the addition of 1 N HCl, followed by neutralization with 1 N NaOH and centrifugation to pellet cell debris. Cyclooxygenase enzyme activity in both HOSC and THP-1 cell supernatants is determined by measuring the concentration of PGE2 using a commercially available ELISA (Neogen #404110). […]

In the case of `O=C(Nc1ccc(Oc2cccc3ccccc23)nc1)c1c(Cl)cccc1Cl` [2-(1-naphthyloxy)-5-(2,6-dichlorophenylcarbonylamino) pyridine], the IC50 [1] is reported as under 15 µM.

Work on `Cc1ccc(Oc2ccc(NC(=O)c3c(C)cccc3C)cn2)c(C)c1` [2-(2,4-dimethylphenoxy)-5-(2,6-dimethylphenylcarbonylamino)pyridine] yielded an IC50 [1] of under 15 µM.

`Cc1ccc(Oc2ccc(NC(=O)c3ccccc3C)cn2)c(C)c1` [2-(2,4-dimethylphenoxy)-5-(2-methylphenylcarbonylamino) pyridine] showed an IC50 [1] of under 15 µM.

Compound `Cc1ccc(Nc2ccc(NC(=O)c3c(Cl)cccc3Cl)cn2)c(C)c1` [2-(2,4-dimethylphenylamino)-5-(2,6-dichlorophenylcarbonylamino)pyridine] has an IC50 [2] of at most 10 µM.

`Cc1ncccc1Oc1ccc(NC(=O)c2c(Cl)cccc2Cl)cn1` [2-(2-methyl-3-pyridyloxy)-5-(2,6-dichlorophenylcarbonylamino)pyridine] gave an IC50 [1] of under 15 µM.

`Cc1cc(Cl)ccc1Oc1ccc(NC(=O)c2c(Cl)cccc2Cl)cn1` [2-(2-methyl-4-chlorophenoxy)-5-(2,6-dichlorophenylcarbonylamino)pyridine] was tested, and the IC50 [1] was under 15 µM.

For `Cc1cc(Cl)ccc1Oc1ccc(NC(=O)c2c(C)cccc2C)cn1` [2-(2-methyl-4-chlorophenoxy)-5-(2,6-dimethylphenylcarbonylamino)pyridine], the IC50 [1] was under 15 µM.

With `Cc1cc(Cl)ccc1Oc1ccc(NC(=O)c2ccccc2Cl)cn1` [2-(2-methyl-4-chlorophenoxy)-5-(2-chlorophenylcarbonylamino)pyridine] the IC50 [1] was under 15 µM.

Work on `Cc1cc(Cl)ccc1Oc1ccc(NC(=O)c2c(C)noc2C)cn1` [2-(2-methyl-4-chlorophenoxy)-5-((3,5-dimethyl-4-isoxazolyl)carbonylamino)pyridine] yielded an IC50 [1] of under 15 µM.

Compound `Cc1ccccc1NC(=O)c1ccc(Nc2ccc(Cl)cc2C)nc1` [2-(2-methyl-4-chlorophenylamino)-5-(2-methylphenylaminocarbonyl)pyridine] has an IC50 [1] of under 15 µM.

Work on `Cc1cc(Cl)ccc1Nc1ccc(NC(=O)c2ccccc2C)cn1` [2-(2-methyl-4-chlorophenylamino)-5-(2-methylphenylcarbonylamino)pyridine] yielded an IC50 [1] of under 15 µM.

In the case of `Cc1cc(F)ccc1Oc1ccc(NC(=O)c2c(Cl)cccc2Cl)cn1` [2-(2-methyl-4-fluorophenoxy)-5-(2,6-dichlorophenylcarbonylamino)pyridine], the IC50 [1] is reported as under 15 µM.

Work on `Cc1cc(F)ccc1Oc1ccc(NC(=O)c2c(C)cccc2C)cn1` [2-(2-methyl-4-fluorophenoxy)-5-(2,6-dimethylphenylcarbonylamino)pyridine] yielded an IC50 [1] of under 15 µM.

In the case of `Cc1cc(F)ccc1Oc1ccc(NC(=O)c2ccccc2F)cn1` [2-(2-methyl-4-fluorophenoxy)-5-(2-fluorophenylcarbonylamino)pyridine], the IC50 [1] is reported as under 15 µM.

Compound `Cc1cc(F)ccc1Oc1ccc(NC(=O)c2ccccc2C)cn1` [2-(2-methyl-4-fluorophenoxy)-5-(2-methylphenylcarbonylamino)pyridine] has an IC50 [1] of under 15 µM.

Work on `CC1CCCCC1Nc1ccc(NC(=O)c2c(Cl)cccc2Cl)cn1` (centres unmarked) [2-(2-methylcyclohexylamino)-5-(2,6-dichlorophenylcarbonylamino)pyridine] yielded an IC50 [1] of under 15 µM.

Compound `Cc1ccccc1C(=O)Nc1ccc(NC2CCCCC2C)nc1` (centres unmarked) [2-(2-methylcyclohexylamino)-5-(2-methylphenylcarbonylamino)pyridine] has an IC50 [1] of under 15 µM.

`Cc1ccccc1Nc1ccc(NC(=O)c2c(C)cccc2C)cn1` [2-(2-methylphenylamino)-5-(2,6-dimethylphenylcarbonylamino)pyridine] showed an IC50 [1] of under 15 µM.

For `Cc1ccccc1Nc1ccc(NC(=O)c2ccccc2C)cn1` [2-(2-methylphenylamino)-5-(2-methylphenylcarbonylamino)pyridine], the IC50 [1] was under 15 µM.

`Cc1cccc(C)c1C(=O)Nc1ccc(Oc2ccc(Cl)cc2)nc1` [2-(4-chlorophenoxy)-5-(2,6-dimethylphenylcarbonylamino) pyridine] gave an IC50 [1] of under 15 µM.

Work on `O=C(Nc1ccc(NC2CCCCC2)nc1)c1c(Cl)cccc1Cl` [2-cyclohexylamino-5-(2,6-dichlorophenylcarbonylamino) pyridine] yielded an IC50 [1] of under 15 µM.

Compound `Cc1cccc(C)c1C(=O)Nc1ccc(NC2CCCCC2)nc1` [2-cyclohexylamino-5-(2,6-dimethylphenylcarbonylamino) pyridine] has an IC50 [1] of under 15 µM.

`O=C(Nc1ccc(OC2CCCCC2)nc1)c1c(Cl)cccc1Cl` [2-cyclohexyloxy-5-(2,6-dichlorophenylcarbonylamino) pyridine] gave an IC50 [1] of under 15 µM.

Work on `Cc1cccc(C)c1C(=O)Nc1ccc(OC2CCCCC2)nc1` [2-cyclohexyloxy-5-(2,6-dimethylphenylcarbonylamino) pyridine] yielded an IC50 [1] of under 15 µM.

`O=C(Nc1ccc(OC2CCCCC2)nc1)c1ccccc1Cl` [2-cyclohexyloxy-5-(2-chlorophenylcarbonylamino)pyridine] gave an IC50 [1] of under 15 µM.

With `Cc1ccccc1C(=O)Nc1ccc(OC2CCCCC2)nc1` [2-cyclohexyloxy-5-(2-methylphenylcarbonylamino)pyridine] the IC50 [1] was under 15 µM.
